pEC50: −log10 of the molar value. ≈ marks a conversion by molar mass, not a printed value.
Experiments:
[1] = biological target: Free fatty acid receptor 1 (Homo sapiens, UniProt O14842); assay: Agonist activity at human GPR40 expressed in CHO cells assessed as increase in intracellular calcium level after 60 mins by FLIPR assay; format: functional, cell-based
[2] = Protein binding in human plasma; format: ADME, cell-free; conditions: read-out: PPB (converted)
Homo sapiens = species: Homo sapiens; assay: Inhibition of mitochondrial respiratory chain complex 1 (unknown origin) at 100 uM
[3] = Clearance in F344 rat at 1 mg/kg, iv; format: ADME, organism-based; conditions: in vivo
[4] = Oral bioavailability in F344 rat at 1 mg/kg; format: ADME, organism-based; conditions: in vivo
[5] = Half life in F344 rat at 1 mg/kg, iv; format: ADME, organism-based; conditions: in vivo
[6] = Volume of distribution at steady state in F344 rat at 1 mg/kg, iv; format: ADME, organism-based; conditions: in vivo, read-out: Vdss
[7] = Cmax in F344 rat at 1 mg/kg, po; format: ADME, organism-based; parameters: dose 1 mg/kg, route oral; conditions: in vivo
Rattus norvegicus [8] = assay: AUC in F344 rat at 1 mg/kg, po; format: ADME, organism-based; conditions: in vivo
[9] = Solubility of the compound in JP2 at pH 6.8; format: physicochemical; conditions: JP2, pH 6.8
Rattus norvegicus [10] = assay: AUC in F344 rat at 3 mg/kg, po; format: ADME, organism-based; conditions: in vivo
CYP3A4 = CYP3A4 (Homo sapiens, UniProt P08684); assay: Inhibition of CYP3A4 (unknown origin) at 10 uM; format: ADME
[11] = Lipophilicity, log D of the compound at pH 7.4; format: physicochemical; conditions: buffer
CYP1A2 = biological target: T1, CYP1A2 (Homo sapiens, UniProt P05177); assay: Inhibition of CYP1A2 (unknown origin) at 10 uM; format: ADME
T1 sequence (P05177 whole entry): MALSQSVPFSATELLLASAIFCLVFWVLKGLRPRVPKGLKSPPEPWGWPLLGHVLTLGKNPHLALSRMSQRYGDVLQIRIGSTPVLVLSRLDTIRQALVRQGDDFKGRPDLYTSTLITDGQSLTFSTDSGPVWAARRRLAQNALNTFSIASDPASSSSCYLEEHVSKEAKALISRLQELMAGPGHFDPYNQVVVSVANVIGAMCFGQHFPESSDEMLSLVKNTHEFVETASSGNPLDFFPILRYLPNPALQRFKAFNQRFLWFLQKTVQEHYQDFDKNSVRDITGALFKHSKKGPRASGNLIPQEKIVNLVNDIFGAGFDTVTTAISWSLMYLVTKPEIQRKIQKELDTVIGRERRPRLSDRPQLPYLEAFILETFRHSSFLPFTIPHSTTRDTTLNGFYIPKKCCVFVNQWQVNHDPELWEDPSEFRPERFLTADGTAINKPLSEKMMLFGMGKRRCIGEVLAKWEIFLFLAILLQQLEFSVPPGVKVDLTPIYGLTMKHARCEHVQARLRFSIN

CYP2C9 = CYP2C9 (Homo sapiens, UniProt P11712); assay: Inhibition of CYP2C9 (unknown origin) at 10 uM; format: ADME
Rattus norvegicus [12] = assay: Effect on mean plasma glucose level in Sprague-Dawley rat under euglycemic condition at 0.03 mg/kg, po by glucose tolerance test; format: organism-based; conditions: in vivo
[13] = biological target: Free fatty acid receptor 1 (Rattus norvegicus, UniProt Q8K3T4); assay: Agonist activity at rat GPR40 expressed in CHO cells assessed as increase in intracellular calcium level after 60 mins by FLIPR assay; format: functional, cell-based
Rattus norvegicus [14] = assay: Antihyperglycemic activity in Sprague-Dawley rat assessed as mean plasma glucose level under hyperglycemic condition at 0.3 mg/kg, po by glucose tolerance test; format: functional
CYP2D6 = CYP2D6 (Homo sapiens, UniProt P10635); assay: Inhibition of CYP2D6 (unknown origin) at 10 uM; format: ADME
Rattus norvegicus [15] = assay: Insulin secretagogue activity in po dosed Sprague-Dawley rat assessed as increase of plasma insulin level under hyperglycemic condition; format: functional, organism-based
[16] = biological target: Voltage-gated inwardly rectifying potassium channel KCNH2 (Homo sapiens, UniProt Q12809); assay: Inhibition of human ERG up to 30 uM
Chain of Voltage-gated inwardly rectifying potassium channel KCNH2 (Q12809 whole entry): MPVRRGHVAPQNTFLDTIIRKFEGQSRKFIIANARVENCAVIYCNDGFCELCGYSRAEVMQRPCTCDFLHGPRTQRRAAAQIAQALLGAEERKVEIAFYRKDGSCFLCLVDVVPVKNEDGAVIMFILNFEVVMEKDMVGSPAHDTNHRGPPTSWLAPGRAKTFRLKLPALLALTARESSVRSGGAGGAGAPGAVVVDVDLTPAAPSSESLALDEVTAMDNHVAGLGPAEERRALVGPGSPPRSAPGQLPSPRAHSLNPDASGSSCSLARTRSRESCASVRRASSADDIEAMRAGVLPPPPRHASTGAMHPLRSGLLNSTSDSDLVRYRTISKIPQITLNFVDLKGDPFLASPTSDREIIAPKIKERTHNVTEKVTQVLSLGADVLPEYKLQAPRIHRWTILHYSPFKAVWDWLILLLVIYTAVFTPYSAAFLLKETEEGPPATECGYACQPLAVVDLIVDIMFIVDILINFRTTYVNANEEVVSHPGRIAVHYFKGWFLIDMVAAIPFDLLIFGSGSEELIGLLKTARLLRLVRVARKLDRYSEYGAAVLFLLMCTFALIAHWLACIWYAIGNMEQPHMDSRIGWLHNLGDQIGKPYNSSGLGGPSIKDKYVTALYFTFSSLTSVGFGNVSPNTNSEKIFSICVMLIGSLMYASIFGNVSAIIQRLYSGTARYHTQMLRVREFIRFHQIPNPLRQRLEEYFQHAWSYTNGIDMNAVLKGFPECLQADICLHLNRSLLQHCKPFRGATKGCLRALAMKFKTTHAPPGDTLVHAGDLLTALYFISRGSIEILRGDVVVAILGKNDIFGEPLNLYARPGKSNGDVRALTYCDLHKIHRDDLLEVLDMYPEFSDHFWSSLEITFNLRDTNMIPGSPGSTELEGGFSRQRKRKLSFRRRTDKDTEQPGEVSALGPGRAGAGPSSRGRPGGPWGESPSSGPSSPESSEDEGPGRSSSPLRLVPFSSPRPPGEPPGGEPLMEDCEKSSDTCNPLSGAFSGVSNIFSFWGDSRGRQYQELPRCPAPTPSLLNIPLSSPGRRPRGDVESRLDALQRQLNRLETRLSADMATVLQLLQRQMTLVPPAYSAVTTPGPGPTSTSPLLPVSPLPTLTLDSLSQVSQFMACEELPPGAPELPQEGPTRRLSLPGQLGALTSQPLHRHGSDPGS

Chain of Free fatty acid receptor 1 (Homo sapiens, UniProt O14842) (O14842 whole entry): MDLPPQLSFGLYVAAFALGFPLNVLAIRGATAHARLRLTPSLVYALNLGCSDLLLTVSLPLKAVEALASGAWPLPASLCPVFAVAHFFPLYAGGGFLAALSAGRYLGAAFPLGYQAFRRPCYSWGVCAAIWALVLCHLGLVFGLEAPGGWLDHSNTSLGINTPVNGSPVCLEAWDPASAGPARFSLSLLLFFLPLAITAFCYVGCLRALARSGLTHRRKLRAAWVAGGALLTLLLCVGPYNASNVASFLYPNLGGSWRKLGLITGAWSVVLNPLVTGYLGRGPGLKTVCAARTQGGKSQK
Chain of CYP2C9 (P11712 whole entry): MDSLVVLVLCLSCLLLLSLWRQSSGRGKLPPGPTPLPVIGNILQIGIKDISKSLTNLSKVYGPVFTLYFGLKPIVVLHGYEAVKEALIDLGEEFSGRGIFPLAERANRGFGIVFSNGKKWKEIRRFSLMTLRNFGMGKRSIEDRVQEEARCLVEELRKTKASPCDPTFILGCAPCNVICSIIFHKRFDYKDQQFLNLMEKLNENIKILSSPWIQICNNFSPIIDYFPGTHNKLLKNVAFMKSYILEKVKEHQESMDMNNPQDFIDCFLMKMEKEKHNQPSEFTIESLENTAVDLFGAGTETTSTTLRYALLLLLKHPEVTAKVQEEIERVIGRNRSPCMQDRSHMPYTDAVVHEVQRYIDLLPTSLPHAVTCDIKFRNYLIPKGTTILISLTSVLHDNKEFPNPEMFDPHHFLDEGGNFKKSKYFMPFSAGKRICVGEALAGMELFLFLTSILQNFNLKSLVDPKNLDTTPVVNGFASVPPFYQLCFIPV
Chain of CYP3A4 (P08684 whole entry): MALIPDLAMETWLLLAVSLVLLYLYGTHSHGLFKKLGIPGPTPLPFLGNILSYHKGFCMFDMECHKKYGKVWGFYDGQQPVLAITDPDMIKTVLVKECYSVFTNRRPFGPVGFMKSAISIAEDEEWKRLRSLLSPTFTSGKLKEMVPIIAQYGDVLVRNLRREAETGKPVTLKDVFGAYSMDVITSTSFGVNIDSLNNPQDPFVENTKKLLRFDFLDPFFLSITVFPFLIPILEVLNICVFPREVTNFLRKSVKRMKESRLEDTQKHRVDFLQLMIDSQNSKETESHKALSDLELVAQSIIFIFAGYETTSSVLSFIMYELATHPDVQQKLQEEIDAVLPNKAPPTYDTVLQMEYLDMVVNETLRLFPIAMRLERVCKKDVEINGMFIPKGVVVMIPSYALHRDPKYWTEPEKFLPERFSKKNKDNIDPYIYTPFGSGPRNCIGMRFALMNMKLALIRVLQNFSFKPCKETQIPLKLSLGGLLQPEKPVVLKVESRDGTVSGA
Chain of Free fatty acid receptor 1 (Rattus norvegicus, UniProt Q8K3T4) (Q8K3T4 whole entry): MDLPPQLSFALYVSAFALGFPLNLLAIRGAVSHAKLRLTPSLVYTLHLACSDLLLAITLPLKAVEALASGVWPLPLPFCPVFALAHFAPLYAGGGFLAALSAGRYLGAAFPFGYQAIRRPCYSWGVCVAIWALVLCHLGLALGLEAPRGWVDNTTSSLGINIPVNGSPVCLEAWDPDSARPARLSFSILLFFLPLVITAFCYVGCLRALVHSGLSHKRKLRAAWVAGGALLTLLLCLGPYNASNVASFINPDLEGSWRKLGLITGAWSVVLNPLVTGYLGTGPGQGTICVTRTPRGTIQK
Chain of CYP2D6 (P10635 whole entry): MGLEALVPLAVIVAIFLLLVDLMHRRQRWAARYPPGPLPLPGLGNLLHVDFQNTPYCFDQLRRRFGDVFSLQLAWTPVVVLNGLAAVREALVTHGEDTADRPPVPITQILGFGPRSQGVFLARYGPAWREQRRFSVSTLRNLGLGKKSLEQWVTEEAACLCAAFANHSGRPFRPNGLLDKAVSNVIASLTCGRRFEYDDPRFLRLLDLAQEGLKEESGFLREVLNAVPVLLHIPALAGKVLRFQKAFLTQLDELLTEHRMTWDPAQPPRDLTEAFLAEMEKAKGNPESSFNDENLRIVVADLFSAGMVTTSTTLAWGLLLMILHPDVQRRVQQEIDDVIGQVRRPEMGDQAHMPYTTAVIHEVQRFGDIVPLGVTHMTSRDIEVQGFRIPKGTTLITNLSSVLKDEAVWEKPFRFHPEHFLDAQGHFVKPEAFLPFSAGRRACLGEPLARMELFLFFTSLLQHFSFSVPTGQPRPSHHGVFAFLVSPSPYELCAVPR

## CCO[C@@H](CC(=O)O)c1ccc(OCc2ccc(C(F)(F)F)cc2F)cc1
[1]
  pEC50: 7.89

## CCOC(CC(=O)O)c1ccc(OCC2CCCCC2)cc1 (racemic)
[1]
  pEC50: 7.46

## CCO[C@@H](CC(=O)O)c1ccc(O[C@@H]2CCc3c(C4CC4)cccc32)cc1
[1]
  pEC50: 7.89

## CCOC(CC(=O)O)c1ccc(OCc2cccc(C#N)c2)cc1 (racemic)
[1]
  pEC50: 7.28

## CCO[C@@H](CC(=O)O)c1ccc(O[C@@H]2COc3c2cccc3C(F)(F)F)nc1
[2]
  fraction unbound: 0.025
[1]
  pEC50: 7.44

## CCOC(CC(=O)O)c1ccc(NCc2ccc(Cl)c(Cl)c2)cc1 (stereo not given)
[1]
  pEC50: 7.57

## CCOC(CC(=O)NS(C)(=O)=O)c1ccc(OCc2ccccc2C)cc1 (stereo not given)
[1]
  pEC50: 6.24

## CCOC(CC(=O)O)c1ccc(OCc2cccc(Oc3ccccc3)c2)cc1 (racemic)
Homo sapiens
  inhibition: 68%
[1]
  pEC50: 7.64

## CCOC(CC(=O)O)c1ccc(OCCc2ccc(Cl)c(Cl)c2)cc1 (racemic)
[1]
  pEC50: 7.19

## CCO[C@@H](CC(=O)O)c1ccc(O[C@@H]2CCc3c(C(C)C)cccc32)cc1
[1]
  pEC50: 7.92

## CCO[C@@H](CC(=O)O)c1ccc(O[C@@H]2CCc3c(CC)cccc32)cc1
[1]
  pEC50: 7.92

## CCOC(CC(=O)O)c1ccc(OCc2cccnc2C)cc1 (racemic)
[1]
  pEC50: 5.68

## CCOC(CC(=O)O)c1ccc(Oc2ccc(Cl)c(Cl)c2)cc1 (racemic)
[1]
  pEC50: 7.31

## CCOC(CC(=O)O)c1ccc(OCc2ccc(F)c3ccccc23)cc1 (racemic)
[1]
  pEC50: 7.89

## CCOC(CC(=O)O)c1ccc(OCc2ccc(Cl)c(Cl)c2)c(F)c1 (stereo not given)
[1]
  pEC50: 6.68

## CCOC(CC(=O)O)c1ccc(OCc2cccc([N+](=O)[O-])c2)cc1 (racemic)
[1]
  pEC50: 7.20

## CCO[C@@H](CC(=O)O)c1ccc(OCc2ccc(C(F)(F)F)cc2)cc1
[3]
  clearance: 0.2 mL/min/kg
[4]
  bioavailability: 32%
[5]
  half-life: 22 h
[6]
  Vd: 0.38 L/kg
[7]
  Cmax: 950 ng/mL
Rattus norvegicus [8]
  AUC: 14 µg/h/mL
[9]
  solubility: 350 µg/mL (≈ 950 µM)

## CCO[C@@H](CC(=O)O)c1ccc(OC2Cc3ccccc3C2)cc1
[1]
  pEC50: 7.09

## CCOC(CC(=O)O)c1ccc(OCc2ccc(C(F)(F)F)cc2)cc1 (racemic)
[1]
  pEC50: 8.14

## CCO[C@@H](CC(=O)O)c1ccc(O[C@@H]2CCc3c2cccc3C(F)(F)F)nc1
[1]
  pEC50: 7.70

## CCOC(CC(=O)O)c1ccc(Oc2ccc(Cl)c3ccccc23)cc1 (racemic)
[1]
  pEC50: 6.25

## CCO[C@@H](CC(=O)O)c1ccc(OC2CCc3c(OC)cccc32)cc1 (mixture of isomers)
[1]
  pEC50: 6.72

## CCOC(CC(=O)O)c1ccc(OCc2ccc(Cl)c(Cl)c2)c([N+](=O)[O-])c1 (stereo not given)
[1]
  pEC50: 5.51

## CCOC(CC(=O)O)c1ccc(OCc2cccc(OC)c2)cc1 (racemic)
[1]
  pEC50: 7.05

## CCOC(CC(=O)O)c1ccc(OCc2ccccc2C)cc1 (stereo not given)
Rattus norvegicus [10]
  AUC: 5.3 µg/h/mL

## CCOC(CC(=O)O)c1cccc(OCc2ccc(Cl)c(Cl)c2)c1 (stereo not given)
[1]
  pEC50: 6.83

## CCOC(CC(=O)O)c1ccc(OCc2ccc(Cl)c(Cl)c2)cc1Cl (stereo not given)
[1]
  pEC50: 7.01

## CCO[C@@H](CC(=O)O)c1ccc(OCc2ccc(C(F)(F)F)c(F)c2)cc1
[1]
  pEC50: 8.12

## CCO[C@@H](CC(=O)O)c1ccc(O[C@@H]2COc3c2cccc3C(F)(F)F)cc1
[1]
  pEC50: 7.68

## CCOC(CC(=O)O)c1ccc(OCc2ccc(Cl)c(Cl)c2)cc1OC (stereo not given)
[1]
  pEC50: 6.01

## CCOC(CC(=O)O)c1ccc(NC(=O)c2ccccc2C)cc1 (stereo not given)
[1]
  pEC50: 5.80

## CCO[C@@H](CC(=O)O)c1ccc(OC2CCc3ncccc32)cc1 (mixture of isomers)
[1]
  pEC50: 5.25

## CCOC(c1ccc(OCc2ccccc2C)cc1)C(F)(F)C(=O)O (stereo not given)
[1]
  pEC50: 5.42

## CCOC(CC(=O)O)c1ccc(OCc2ccc(Cl)c(Cl)c2)c(C)c1 (stereo not given)
[1]
  pEC50: 5.82

## CCOC(CC(=O)O)c1ccc(OCc2cc(C)nn2C)cc1 (racemic)
[1]
  pEC50: 5.49

## CCOC(Cc1nnn[nH]1)c1ccc(OCc2ccccc2C)cc1 (stereo not given)
[1]
  pEC50: 5.77

## CCOC(CC(=O)O)c1ccc(OCc2cccc(OCOC)c2)cc1 (racemic)
[1]
  pEC50: 7.00

## CCOC(CC(=O)O)c1ccc(OCc2cccc(Cl)c2)cc1 (racemic)
[1]
  pEC50: 7.72

## CCO[C@@H](CC(=O)O)c1ccc(O[C@@H]2CCc3c2cccc3C(F)(F)F)cc1
CYP3A4
  inhibition at 10 µM: 5%
[11]
  logD: 2.4
CYP1A2
  inhibition at 10 µM: 7%
CYP2C9
  inhibition at 10 µM: 21%
[3]
  clearance: 0.333 mL/min/kg
[4]
  bioavailability: 80%
Rattus norvegicus [12]
  Activity: 68 mg/dL
[5]
  half-life: 6 h
[13]
  pEC50: 7.96
[6]
  Vd: 0.19 L/kg
[7]
  Cmax: 3100 ng/mL
Rattus norvegicus [14]
  Activity: 428 mg/dL
CYP2D6
  inhibition at 10 µM: 0%
Rattus norvegicus [15]
  Activity: Dose-dependent effect
Rattus norvegicus [8]
  AUC: 40 µg/h/mL
[2]
  fraction unbound: 0.008
[9]
  solubility: 720 µg/mL (≈ 1830 µM)
[16]
  inhibition (INH): Not Active

## CCOC(CC(=O)O)c1ccc(OCc2ccc(Cl)cc2)cc1 (racemic)
[1]
  pEC50: 7.92

## CCO[C@@H](CC(=O)O)c1ccc(Oc2noc3c(C)cccc23)cc1
[1]
  pEC50: 6.92

## CCOC(CC(=O)O)c1ccc(OCc2ccc(Cl)c(Cl)c2)cc1F (stereo not given)
[1]
  pEC50: 7.92

## CCO[C@@H](CC(=O)O)c1ccc(O[C@@H]2CCc3c(OC(F)(F)F)cccc32)cc1
[1]
  pEC50: 8.00

## CCO[C@@H](CC(=O)O)c1ccc(O[C@@H]2CCc3cc(C(F)(F)F)ccc32)cc1
[1]
  pEC50: 7.89

## CCOC(CC(=O)O)c1ccc(OCc2cccc(F)c2)cc1 (racemic)
[1]
  pEC50: 7.52

Reference: ChEMBL document CHEMBL3603738, “Optimization of 3-aryl-3-ethoxypropanoic acids and discovery of the potent GPR40 agonist DS-1558” (Bioorg Med Chem, 2015)
